One assay has as its system MG6 cells. The experiment in a line: MG6 microglia viability, morphology and proliferation (Cell Counting Kit-8). It is filed as cell-based, mouse. As to conditions: for MG6 cell proliferation: 24 h after CSF-1, listed as Pyk2 inhibitor. As for the experimental part:
FIGS. 4A-4E. Induction of multinucleated cells by a Pyk2 inhibitor. FIG. 4A: Microscopic images depicting the effect of a Pyk2 inhibitor on the morphology of MG6 cells. MG6 cell line is established with neonatal C57BL/6 mouse microglia that are collected from whole brain and transformed with c-myc oncogene. MG6 cells were stimulated with 100 ng/mL CSF-1 for 48 hours and then cultured for 24 hours with various concentrations of Pyk2 inhibitor: 0 nM, 100 nM, 500 nM and 1000 nM. FIG. 4B: Quantification of the effect of a Pyk2 inhibitor on the proliferation of MG6 cells. MG6 cells were stimulated with CSF-1 and cultured with various concentrations of Pyk2 inhibitor as in FIG. 4A. The baseline proliferation rate is defined as 100 ng/mL CSF-1 treatment for 48 hours. Proliferation of MG6 cells with various concertation of Pyk2 inhibitor treatment is measured using a Cell Counter Kit for 4 hours of incubation. No difference in MG6 cell proliferation is observed at the Pyk2 inhibitor concentration of 100 nM. […] FIG. 4C: Microscopic images depicting multinucleated MG6 cells with 24 hours of 1000 nM Pyk2 inhibitor treatment following 48 hours of 100 ng/mL CSF-1 treatment. […] Multinucleated cells with two or more nuclei are observed as marked with circles in the bottom image. FIG. 4D: Quantification of the proportion of multinucleated cells after 0 nM, 500 nM, and 1000 nM Pyk2 inhibitor treatment. MG6 cells were treated with Pyk2 inhibitor for 24 hours after 48 hours of 100 ng/mL CSF-1 treatment. […] FIG. 4E: Immunohistochemical staining depicting multinucleation of Pyk2 inhibitor treated microglia. […]
To further assess the function of Pyk2 during neurodegenerative disorders, such as AD, the effect of Pyk2 inhibition was assessed in a microglial cell line. […]
Upon treatment with up to 1000 nM Pyk2 inhibitor, MG6 viability and morphology appeared to be unaffected (FIG. 4A). To assess if Pyk2 inhibition negatively affected proliferation of MG6 cells, treated and untreated cells were quantified using a Cell Counting Kit-8 (Dojindo, Japan CK104) after 4 hours of incubation.
For orientation: Formazan colour is commonly taken as a measure of viable cells.

In a further assay the test system is Raw264.7. Description: RANKL-induced osteoclast differentiation of Raw264.7 cells (TRAP activity and staining). In kind it is cell-based, mouse. To be noted: for TRAP activity: listed as Pyk2 inhibitor. The protocol: FIGS. 8A-8F. Effect of Pyk2 inhibition on RANKL induced osteoclast differentiation. FIG. 8A: Schematic depicting the experimental design for testing the effect of Pyk2 inhibition on RANKL-induced osteoclast differentiation. On day 1, Raw264.7 macrophages are pretreated with Pyk2 inhibitor and then treated on day 2 with fresh culture medium comprising 100 ng/mL RANKL to stimulate differentiation to osteoclasts. The quantity of mature, differentiated osteoclasts is measured by tartrate-resistant acid […] (TRAP) activity on day 6. FIG. 8B: TRAP activity of mature, differentiated osteoclasts treated as described in FIG. 8A. […] FIG. 8C: Phase-contrast microscope images of TRAP-stained osteoclasts, treated as described in FIG. 8A, at ×20 magnification. FIG. 8D: Schematic depicting the experimental design for testing the effect of Pyk2 inhibition on RANKL-induced osteoclast differentiation. On day 2, Raw264.7 macrophages are treated with fresh culture medium comprising 100 ng/mL RANKL to stimulate differentiation to osteoclasts, then are subsequently treated on day 3 with Pyk2 inhibitor. FIG. 8E: TRAP activity of mature, differentiated osteoclasts treated as described in FIG. 8D. […] FIG. 8F: Phase-contrast microscope images of TRAP-stained osteoclasts, treated as described in FIG. 8D, at ×20 magnification.
To explore this question, an Abelson leukemia virus transformed monocyte/macrophage-like cell line derived from BALB/c mice, Raw264.7, was used. To induce differentiation to osteoclasts, Raw264.7 cells were treated with receptor activator of nuclear factor kappa-B ligand (RANKL), also known as osteoclast differentiation factor (ODF). Raw264.7 cells and differentiated osteoclasts were treated with Pyk2 inhibitor, as in Example 2.
Raw264.7 cells were cultured and treated with Pyk2 inhibitors after 24 hours, then differentiated into osteoclasts after 24 hours of Pyk2 inhibitor treatment (FIG. 8A). Four days after differentiation into osteoclasts, the cells were then assessed for tartrate-resistant acid phosphatase (TRAP) activity and presence, as TRAP is a biomarker expressed by mature, differentiated osteoclasts, but not undifferentiated progenitor cells.
Therefore, the effect of Pyk2 inhibition was also assessed by culturing RAW264.7 cells, differentiating into osteoclasts after 2 days, the treating with Pyk2 inhibitor for 24 hours, 1 day after differentiating (FIG. 8D). […] Therefore, Pyk2 inhibition could ultimately result in an increase in bone mass.

Molecules are shown by their SMILES. “Also recorded” adds a separate entry of the source.

`CN(c1ccccc1CNc1nc(Nc2ccc3c(c2)CC(=O)N3)ncc1C(F)(F)F)S(C)(=O)=O` [PF-431396]: the figures for the MG6 cell proliferation result in the assay on MG6 cells (100 nM (up to 100 nM)) and with MG6 cells (500 nM or 1000 nM) were “No significant change; also recorded: No difference” and “slight reduction; also recorded: slightly decreased”, respectively. In the assay on MG6 cells (up to 1000 nM, 24 h after 48 h 100 ng/mL CSF-1), the “MG6 viability and morphology” value is listed as “unaffected”. Further, the TRAP activity result was “statistically significant reduction; also recorded: significantly reduced” in the assay on Raw264.7 (1000 nM for 24 hours, 1 day after RANKL) and “not statistically significant; also recorded: no significant differences” in the assay with Raw264.7 (inhibitor pretreatment (up to 1000 nM) before RANKL). Also, the TRAP staining entry with Raw264.7 (inhibitor for 24 hours, 1 day after RANKL) is reported as “apparent reduction”; with Raw264.7 (inhibitor pretreatment before RANKL), “did not reveal any obvious difference”.

For the origin of these results see US20250186439A1, “PYK2 INHIBITION MODULATES IMMUNE CELL FUNCTION” (The Children's Medical Center Corporation, priority 2022, published 2025).
